According to patent US11192877B2, “3-(5-hydroxy-1-oxoisoindolin-2-yl)piperidine-2,6-dione derivatives and uses thereof” (Novartis AG, priority 2018, dated 2021):
Where a name gives a salt, the structure may show the parent alone. Read-outs that look alike come from different tables or passages of the source.

Molecular target: IKZF2 (Helios) (Homo sapiens, UniProt Q96SW2+Q9UKS7)
Test: Prolabel quantification of IKZF2 protein levels in 293GT cells
Type: cell-based
Settings: 24 h, read-out: IKZF2 % protein reduction at 10 μM, 24 h
[1] = Pro-label assay, 293GT cells, 10 μM

Sequence of IKZF2 (Helios) (Q9UKS7 whole entry): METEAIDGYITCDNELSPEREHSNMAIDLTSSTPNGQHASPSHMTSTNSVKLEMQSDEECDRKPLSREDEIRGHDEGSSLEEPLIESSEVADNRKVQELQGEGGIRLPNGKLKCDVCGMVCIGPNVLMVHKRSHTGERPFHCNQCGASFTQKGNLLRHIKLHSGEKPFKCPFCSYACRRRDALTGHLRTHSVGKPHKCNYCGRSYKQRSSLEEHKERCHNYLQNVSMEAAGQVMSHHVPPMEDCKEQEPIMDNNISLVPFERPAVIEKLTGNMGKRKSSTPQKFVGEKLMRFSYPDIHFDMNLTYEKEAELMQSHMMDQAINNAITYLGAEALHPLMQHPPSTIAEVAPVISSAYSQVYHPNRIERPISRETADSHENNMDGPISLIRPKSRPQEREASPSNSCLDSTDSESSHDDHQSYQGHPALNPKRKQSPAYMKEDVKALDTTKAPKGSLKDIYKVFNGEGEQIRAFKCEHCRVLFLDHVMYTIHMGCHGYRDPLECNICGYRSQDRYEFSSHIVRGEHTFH
Sequence of IKZF2 (Helios) (Q96SW2 whole entry): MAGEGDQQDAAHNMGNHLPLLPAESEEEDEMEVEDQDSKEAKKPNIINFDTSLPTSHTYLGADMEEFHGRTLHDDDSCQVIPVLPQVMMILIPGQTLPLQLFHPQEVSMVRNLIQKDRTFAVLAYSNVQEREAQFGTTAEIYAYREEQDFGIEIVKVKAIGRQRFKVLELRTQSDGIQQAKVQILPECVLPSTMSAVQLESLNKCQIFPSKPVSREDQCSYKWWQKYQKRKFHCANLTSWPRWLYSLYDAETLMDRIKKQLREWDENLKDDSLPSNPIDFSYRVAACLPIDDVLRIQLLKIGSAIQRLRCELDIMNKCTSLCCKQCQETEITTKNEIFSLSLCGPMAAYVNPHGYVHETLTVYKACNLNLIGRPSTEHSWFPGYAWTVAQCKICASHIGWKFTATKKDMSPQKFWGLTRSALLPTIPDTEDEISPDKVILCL
Sequence of IKZF2 (Helios) (Q16531 whole entry partner): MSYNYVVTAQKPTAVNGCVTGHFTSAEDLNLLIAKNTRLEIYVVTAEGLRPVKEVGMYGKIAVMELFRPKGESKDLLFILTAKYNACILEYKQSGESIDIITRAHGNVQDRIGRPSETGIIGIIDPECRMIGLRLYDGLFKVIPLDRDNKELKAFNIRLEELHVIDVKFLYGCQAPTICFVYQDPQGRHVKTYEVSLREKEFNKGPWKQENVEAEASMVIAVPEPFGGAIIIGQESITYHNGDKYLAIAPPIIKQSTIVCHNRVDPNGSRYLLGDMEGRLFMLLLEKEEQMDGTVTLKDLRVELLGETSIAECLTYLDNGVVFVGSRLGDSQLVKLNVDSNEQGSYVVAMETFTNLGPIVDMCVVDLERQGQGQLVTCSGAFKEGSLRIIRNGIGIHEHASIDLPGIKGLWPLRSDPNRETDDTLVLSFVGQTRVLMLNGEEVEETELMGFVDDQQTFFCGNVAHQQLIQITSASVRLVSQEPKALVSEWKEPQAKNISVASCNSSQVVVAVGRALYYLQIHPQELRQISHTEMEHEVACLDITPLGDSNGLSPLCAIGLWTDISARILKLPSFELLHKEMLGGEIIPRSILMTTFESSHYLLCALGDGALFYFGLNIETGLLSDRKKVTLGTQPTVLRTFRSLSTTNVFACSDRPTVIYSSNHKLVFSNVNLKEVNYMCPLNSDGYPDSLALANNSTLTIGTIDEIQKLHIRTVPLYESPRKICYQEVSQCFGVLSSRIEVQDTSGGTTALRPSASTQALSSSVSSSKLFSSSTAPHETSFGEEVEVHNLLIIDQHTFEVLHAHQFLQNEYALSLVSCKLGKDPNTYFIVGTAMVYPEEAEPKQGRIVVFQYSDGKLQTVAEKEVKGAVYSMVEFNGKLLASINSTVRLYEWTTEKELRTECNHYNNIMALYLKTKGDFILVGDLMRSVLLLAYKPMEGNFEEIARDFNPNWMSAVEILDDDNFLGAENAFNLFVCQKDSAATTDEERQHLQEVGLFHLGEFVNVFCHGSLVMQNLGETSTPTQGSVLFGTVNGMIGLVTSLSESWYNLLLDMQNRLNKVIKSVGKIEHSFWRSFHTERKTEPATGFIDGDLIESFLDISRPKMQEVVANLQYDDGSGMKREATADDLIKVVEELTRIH

Row | Structure (SMILES) | IKZF2 % protein reduction at 10 µM [1] [%] | IKZF2 % protein reduction at 10 µM [%]
1 | O=C1CCC(N2Cc3cc(O[C@H]4CCC[C@@H]4N4CC5CCC(C4)O5)ccc3C2=O)C(=O)N1 (stereo partly drawn) [I-18, 3-(5-(((1S,2S)-2-(8-oxa-3-azabicyclo[3.2.1]octan-3-yl)cyclopentyl)oxy)-1-oxoisoindolin-2-yl)piperidine-2,6-dione] | 50 | –
2 | O=C1CCC(N2Cc3cc(O[C@H]4CCC[C@@H]4NCc4ccccc4)ccc3C2=O)C(=O)N1 (stereo partly drawn) [I-20, 3-(5-(((1S,2S)-2-(benzylamino)cyclopentyl)oxy)-1-oxoisoindolin-2-yl)piperidine-2,6-dione] | 75 | –
3 | O=C1CCC(N2Cc3cc(O[C@H]4CCOC[C@@H]4NCc4ccccc4)ccc3C2=O)C(=O)N1 (stereo partly drawn) [I-21, 3-(5-(((3S,4S)-3-(benzylamino)tetrahydro-2H-pyran-4-yl)oxy)-1-oxoisoindolin-2-yl)piperidine-2,6-dione] | 30 | –
4 | O=C1CCC(N2Cc3cc(O[C@H]4CCCC[C@@H]4NCc4ccccc4)ccc3C2=O)C(=O)N1 (stereo partly drawn) [I-22, 3-(5-(((1S,2S)-2-(benzylamino)cyclohexyl)oxy)-1-oxoisoindolin-2-yl)piperidine-2,6-dione] | 80 | –
5 | C[C@@H](N[C@H]1CCCC[C@@H]1Oc1ccc2c(c1)CN(C1CCC(=O)NC1=O)C2=O)c1ccccc1 (stereo partly drawn) [I-23, 3-(1-oxo-5-(((1S,2S)-2-(((R)-1-phenylethyl)amino)cyclohexyl)oxy)isoindolin-2-yl)piperidine-2,6-dione] | 80 | –
6 | N[C@@H]1CCC[C@@H]1Oc1ccc2c(c1)CN(C1CCC(=O)NC1=O)C2=O (stereo partly drawn) [I-28, 3-(5-(((1S,2R)-2-aminocyclopentyl)oxy)-1-oxoisoindolin-2-yl)piperidine-2,6-dione hydrochloride] | – | 0
7 | O=C1CCC(N2Cc3cc(O[C@H]4CCC[C@@H]4N4CCCCC4)ccc3C2=O)C(=O)N1 (stereo partly drawn) [I-32, 3-(1-oxo-5-(((1S,2S)-2-(piperidin-1-yl)cyclopentyl)oxy)isoindolin-2-yl)piperidine-2,6-dione] | 85 | –
8 | O=C1CCC(N2Cc3cc(O[C@H]4CCC[C@@H]4N4CCOCC4)ccc3C2=O)C(=O)N1 (stereo partly drawn) [I-33, 3-(5-(((1S,2S)-2-morpholinocyclopentyl)oxy)-1-oxoisoindolin-2-yl)piperidine-2,6-dione] | 55 | –
9 | O=C1CCC(N2Cc3cc(O[C@H]4CCCC[C@@H]4N(Cc4ccccc4)Cc4ccccc4)ccc3C2=O)C(=O)N1 (stereo partly drawn) [I-34, 3-(5-(((1S,2S)-2-(dibenzylamino)cyclohexyl)oxy)-1-oxoisoindolin-2-yl)piperidine-2,6-dione] | 0 | –
10 | CN[C@H]1CCCC[C@@H]1Oc1ccc2c(c1)CN(C1CCC(=O)NC1=O)C2=O (stereo partly drawn) [I-36, 3-(5-(((1S,2S)-2-(methylamino)cyclohexyl)oxy)-1-oxoisoindolin-2-yl)piperidine-2,6-dione] | 80 | –
11 | CC1(C#N)CCN([C@H]2CCC[C@@H]2Oc2ccc3c(c2)CN(C2CCC(=O)NC2=O)C3=O)CC1 (stereo partly drawn) [I-38, 1-((1S,2S)-2-((2-(2,6-dioxopiperidin-3-yl)-1-oxoisoindolin-5-yl)oxy)cyclopentyl)-4-methylpiperidine-4-carbonitrile] | 86 | –
12 | CN(Cc1ccccc1)[C@H]1CCCC[C@@H]1Oc1ccc2c(c1)CN(C1CCC(=O)NC1=O)C2=O (stereo partly drawn) [I-39, 3-(5-(((1S,2S)-2-(benzyl(methyl)amino)cyclohexyl)oxy)-1-oxoisoindolin-2-yl)piperidine-2,6-dione] | 57 | –
13 | N[C@H]1COC[C@@H]1Oc1ccc2c(c1)CN(C1CCC(=O)NC1=O)C2=O (stereo partly drawn) [I-46, 3-(5-(((3R,4S)-4-aminotetrahydrofuran-3-yl)oxy)-1-oxoisoindolin-2-yl)piperidine-2,6-dione] | 0 | –
14 | CCOC1CN([C@H]2CCCC[C@@H]2Oc2ccc3c(c2)CN(C2CCC(=O)NC2=O)C3=O)C1 (stereo partly drawn) [I-48, 3-(5-(((1S,2S)-2-(3-ethoxyazetidin-1-yl)cyclohexyl)oxy)-1-oxoisoindolin-2-yl)piperidine-2,6-dione] | 89 | –
15 | O=C1CCC(N2Cc3cc(O[C@H]4CCCC[C@@H]4N4CC(OCC(F)(F)F)C4)ccc3C2=O)C(=O)N1 (stereo partly drawn) [I-49, 3-(1-oxo-5-(((1S,2S)-2-(3-(2,2,2-trifluoroethoxy)azetidin-1-yl)cyclohexyl)oxy)isoindolin-2-yl)piperidine-2,6-dione] | 86 | –
16 | O=C1CCC(N2Cc3cc(O[C@H]4CCCC[C@@H]4N4CC(OCC(F)F)C4)ccc3C2=O)C(=O)N1 (stereo partly drawn) [I-50, 3-(5-(((1S,2S)-2-(3-(2,2-difluoroethoxy)azetidin-1-yl)cyclohexyl)oxy)-1-oxoisoindolin-2-yl)piperidine-2,6-dione] | 85 | –

Now from value to compound, other results behind:

Row | IKZF2 % protein reduction at 10 µM [1] [%] | Structure (SMILES) | IKZF2 % protein reduction at 10 µM [%]
17 | 80 | CCN(CCF)[C@H]1CCC[C@@H]1Oc1ccc2c(c1)CN(C1CCC(=O)NC1=O)C2=O (stereo partly drawn) [I-24, 3-(5-(((1S,2S)-2-(ethyl(2-fluoroethyl)amino)cyclopentyl)oxy)-1-oxoisoindolin-2-yl)piperidine-2,6-dione] | –
18 | 80 | CCN(C(C)C)[C@H]1CCC[C@@H]1Oc1ccc2c(c1)CN(C1CCC(=O)NC1=O)C2=O (stereo partly drawn) [I-25, 3-(5-(((1S,2S)-2-(ethyl(isopropyl)amino)cyclopentyl)oxy)-1-oxoisoindolin-2-yl)piperidine-2,6-dione] | –
19 | 0 | CO[C@H]1CCC[C@@H]1Oc1ccc2c(c1)CN(C1CCC(=O)NC1=O)C2=O (stereo partly drawn) [I-26, 3-(5-(((1S,2S)-2-methoxycyclopentyl)oxy)-1-oxoisoindolin-2-yl)piperidine-2,6-dione] | –
20 | 50 | O=C1CCC(N2Cc3cc(O[C@H]4CCCC[C@@H]4O)ccc3C2=O)C(=O)N1 (stereo partly drawn) [I-27, 3-(5-(((1S,2S)-2-hydroxycyclohexyl)oxy)-1-oxoisoindolin-2-yl)piperidine-2,6-dione] | –
21 | 80 | CCN[C@H]1CCC[C@@H]1Oc1ccc2c(c1)CN(C1CCC(=O)NC1=O)C2=O (stereo partly drawn) [I-29, 3-(5-(((1S,2S)-2-(ethylamino)cyclopentyl)oxy)-1-oxoisoindolin-2-yl)piperidine-2,6-dione] | –
22 | 0 | N[C@@H]1CCCC[C@@H]1Oc1ccc2c(c1)CN(C1CCC(=O)NC1=O)C2=O (stereo partly drawn) [I-30, 3-(5-(((1S,2R)-2-aminocyclohexyl)oxy)-1-oxoisoindolin-2-yl)piperidine-2,6-dione] | –
23 | 90 | O=C1CCC(N2Cc3cc(O[C@H]4CCC[C@@H]4N(CC4CC4)CC4CC4)ccc3C2=O)C(=O)N1 (stereo partly drawn) [I-31, 3-(5-(((1S,2S)-2-(bis(cyclopropylmethyl)amino)cyclopentyl)oxy)-1-oxoisoindolin-2-yl)piperidine-2,6-dione] | –
24 | 10 | CCN(CC)[C@H]1CCCC[C@H]1Oc1ccc2c(c1)CN(C1CCC(=O)NC1=O)C2=O (stereo partly drawn) [I-35, 3-(5-(((1R,2S)-2-(diethylamino)cyclohexyl)oxy)-1-oxoisoindolin-2-yl)piperidine-2,6-dione] | –
25 | 0 | CCN(CC)[C@@H]1CCC[C@H]1Oc1ccc2c(c1)CN(C1CCC(=O)NC1=O)C2=O (stereo partly drawn) [I-43, 3-(5-(((1R,2R)-2-(diethylamino)cyclopentyl)oxy)-1-oxoisoindolin-2-yl)piperidine-2,6-dione] | –
26 | 11 | CCN(CC)[C@H]1COC[C@@H]1Oc1ccc2c(c1)CN(C1CCC(=O)NC1=O)C2=O (stereo partly drawn) [I-47, 3-(5-(((3R,4S)-4-(diethylamino)tetrahydrofuran-3-yl)oxy)-1-oxoisoindolin-2-yl)piperidine-2,6-dione] | –
